According to ChEMBL document CHEMBL3507680, “University of Dundee, Gates Library screen for HepG2 cell viability”:

Test: Human HepG2 cell viability assay in 384 well format
Assay type: toxicity, cell-based
Design: dose 125 nL, time 70.5 hour; concentration not given beside the values
Details: HepG2 cells, read-out: Inhibition

Structure (SMILES): CN(Cc1nnc2n1CCC2)C(=O)c1ccc2c(c1)OCCO2
- cytotoxicity at 70.5 h: 44.2%

Structure (SMILES): Cc1csc(N2CCCN(C(=O)Cc3ccc(C)s3)CC2)n1
- cytotoxicity at 70.5 h: 16.1%

Structure (SMILES): CCOc1ccc(NC(=O)N(C)Cc2cnn(C)c2)c(C)c1
- cytotoxicity at 70.5 h: -5.21%

Structure (SMILES): CC(C)c1ccc(OCC(=O)N2CCOCC2c2ncon2)cc1 (configuration not stated)
- cytotoxicity at 70.5 h: -8.54%

Structure (SMILES): Cc1csc(N2CCCN(C(=O)Cc3cccs3)CC2)n1
- cytotoxicity at 70.5 h: -5.57%

Structure (SMILES): CC(C)n1nc2c(cc1=O)CN(CCCN1CCCC1=O)CC2
- cytotoxicity at 70.5 h: -9.82%

Structure (SMILES): CC(C(=O)NCc1ccc(N2CCCC2)nc1)S(C)(=O)=O (configuration not stated)
- cytotoxicity at 70.5 h: 15.7%

Structure (SMILES): CC(C(=O)NCc1ccc(N2CCCCC2)nc1)S(C)(=O)=O (configuration not stated)
- cytotoxicity at 70.5 h: -5.42%

Structure (SMILES): Cc1csc(N2CCN(C(=O)NCCNc3ncccn3)CC2)n1
- cytotoxicity at 70.5 h: -5.98%

Structure (SMILES): O=C(NCCNc1ncccn1)C1CC(=O)N(Cc2ccccc2)C1 (configuration not stated)
- cytotoxicity at 70.5 h: -8.64%

Structure (SMILES): COc1ccc(NC(=O)NCCCn2nc3ccccn3c2=O)cc1
- cytotoxicity at 70.5 h: -3.39%

Structure (SMILES): O=C(NCCCn1nc2ccccn2c1=O)Nc1ccccc1Cl
- cytotoxicity at 70.5 h: 0.153%

Structure (SMILES): Cc1nn(C)cc1CCC(=O)N1CCCC(n2cncn2)C1 (configuration not stated)
- cytotoxicity at 70.5 h: 6.4%

Structure (SMILES): Cc1nc(C)n(CC2CCCN2Cc2cn(-c3ccccc3)nn2)n1 (configuration not stated)
- cytotoxicity at 70.5 h: 2.44%

Structure (SMILES): O=C(Cc1csc(-c2nnc[nH]2)n1)N1CCCC1Cn1cccn1 (configuration not stated)
- cytotoxicity at 70.5 h: -8.18%

Structure (SMILES): CN(C)CC1CN(Cc2nnc(-c3ccccc3Cl)o2)CCO1 (configuration not stated)
- cytotoxicity at 70.5 h: 3.65%

Structure (SMILES): CN(C)CC1CN(Cc2coc(-c3ccccc3Cl)n2)CCO1 (configuration not stated)
- cytotoxicity at 70.5 h: 7.1%

Structure (SMILES): CCN(CC)C1CCN(C(=O)NCc2nncn2CC)CC1
- cytotoxicity at 70.5 h: -0.0969%

Structure (SMILES): CC(NC(=O)N1CCN(c2ccccc2)CC1)c1nncn1C (configuration not stated)
- cytotoxicity at 70.5 h: -15.6%

Structure (SMILES): Cn1ncc(NCc2cc(F)cc(F)c2)c(Cl)c1=O
- cytotoxicity at 70.5 h: -7.18%

Structure (SMILES): CC1CN(c2ccc(CNC(=O)c3ccn(C)c(=O)c3)cn2)CCO1 (configuration not stated)
- cytotoxicity at 70.5 h: -8.78%

Structure (SMILES): Cc1cc(NC(=O)N(CC2CCOC2)C2CC2)no1 (configuration not stated)
- cytotoxicity at 70.5 h: -11.9%

Structure (SMILES): Cc1noc(C2CCN(Cc3cc(=O)n(C)c(=O)n3C)CC2)n1
- cytotoxicity at 70.5 h: -13.2%

Structure (SMILES): Cn1cnnc1C1CCCN(C(=O)c2cc(Cl)c3c(c2)OCO3)C1 (configuration not stated)
- cytotoxicity at 70.5 h: -11.6%

Structure (SMILES): CCCn1[nH]cc/c1=N\C(=O)CN1CCOC(Cn2cc(C)cn2)C1 (configuration not stated)
- cytotoxicity at 70.5 h: -14.6%

Structure (SMILES): Cn1ncc(NCc2cccc(COC(C)(C)C)c2)c(Cl)c1=O
- cytotoxicity at 70.5 h: 7.28%

Structure (SMILES): CC(CC#N)NC(=O)c1cc(Br)c2c(c1)OCCO2 (configuration not stated)
- cytotoxicity at 70.5 h: 0.544%

Structure (SMILES): Cn1cnc2c1CCN(CCCc1ccccc1)C2
- cytotoxicity at 70.5 h: -1.08%

Structure (SMILES): Cn1ccc(C(=O)NCc2ccc(N3CCCC3)nc2)cc1=O
- cytotoxicity at 70.5 h: -5.51%

Structure (SMILES): Cc1ccc(C(=O)N2CCCS2(=O)=O)cc1Cl
- cytotoxicity at 70.5 h: -19.9%

Structure (SMILES): CCOCCN1CCCC(c2cc(C(N)=O)[nH]n2)C1 (configuration not stated)
- cytotoxicity at 70.5 h: -13.1%

Structure (SMILES): COc1ccccc1OCCN1CCCC(c2cc(C(N)=O)[nH]n2)C1 (configuration not stated)
- cytotoxicity at 70.5 h: -9.71%

Structure (SMILES): Cc1cc(C2CCCN2Cc2cc(=O)n(C)c(=O)n2C)on1 (configuration not stated)
- cytotoxicity at 70.5 h: -12.3%

Structure (SMILES): Cn1nc2c(cc1=O)CN(Cc1nc(-c3cccs3)no1)CC2
- cytotoxicity at 70.5 h: -14.3%

Structure (SMILES): Cc1cc(CN(C)C(=O)c2ccc(C(F)(F)F)nc2)no1
- cytotoxicity at 70.5 h: -19.6%

Structure (SMILES): Cn1c(C2CC2)nc2c1CCN(CCS(=O)(=O)c1ccccc1)C2
- cytotoxicity at 70.5 h: -14.4%

Structure (SMILES): COCCc1noc(CN2CCCC2Cn2cc(C)cn2)n1 (configuration not stated)
- cytotoxicity at 70.5 h: 18.1%

Structure (SMILES): CCN1CCC(NC(=O)CN2CCCCC2Cn2cc(C)cn2)CC1 (configuration not stated)
- cytotoxicity at 70.5 h: 53.1%

Structure (SMILES): CCOCCN1CCn2c(C)nnc2C1
- cytotoxicity at 70.5 h: 16.1%

Structure (SMILES): CCN(Cc1nc2c(cnn2C)c(=O)[nH]1)c1cccc(F)c1
- cytotoxicity at 70.5 h: -5.89%

Structure (SMILES): Cc1cc(CN2CCN(c3nn4cc(C)nc4s3)CC2)on1
- cytotoxicity at 70.5 h: -7.1%

Structure (SMILES): COc1ccc(COCC(O)CNC(=O)c2cc(C)cc(C)c2)cc1 (configuration not stated)
- cytotoxicity at 70.5 h: -11.8%

Structure (SMILES): O=C(Nc1ccccc1F)N1CCN(Cc2noc(C3CC3)n2)CC1
- cytotoxicity at 70.5 h: -10.2%

Structure (SMILES): Cc1nc(C)n(CC2CCCN(c3ncnc4[nH]ccc34)C2)n1 (configuration not stated)
- cytotoxicity at 70.5 h: 3.27%

Structure (SMILES): Cc1cnn(CC2CCCCN2C(=O)c2cc(C(N)=O)cs2)c1 (configuration not stated)
- cytotoxicity at 70.5 h: 28.2%

Structure (SMILES): Cc1nn(C)c(C)c1C1CCCN1C(=O)c1cc[nH]n1 (configuration not stated)
- cytotoxicity at 70.5 h: -3.7%

Structure (SMILES): c1cnnc(N2CCCC2CNc2ncnc3c2CCC3)c1 (configuration not stated)
- cytotoxicity at 70.5 h: -2.98%
